Consider eight molecules from PubChem BioAssay (NCI).

Test systems include PC-3 prostate; CCRF-CEM leukemia; HL-60(TB) leukemia; A498 renal; COLO 205 colon; SK-MEL-2 melanoma; SW-620 colon; OVCAR-3 ovarian; CAKI-1 renal; NCI-H23 lung.
What all share (assay): growth of human tumour cells (NCI), 48 h

SMILES strings stand for the structures. Values joined by “and” are separate entries in the source; they are usually repeats but may differ in a detail not shown here. Equal values may be shown once.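 Method: 48-hour compound exposure of cells in 96-well plates, five concentrations, linear interpolation of endpoints. At the GI50, growth is halved. Definition used: TGI = concentration required for complete inhibition of growth.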 A value given as a limit tells only on which side of the number the result lay.

With `C/C=C(\CCC1NCCc2c1[nH]c1ccccc21)[Si](C)(C)C` (stereo unspecified), the TGI with PC-3 prostate was 16.1 µM; in the assay on CCRF-CEM leukemia, 17.2 µM and 8.44 µM; in the assay on HL-60(TB) leukemia, 13.2 µM and 3.3 µM; in the assay on A498 renal, 14 µM and 9.88 µM; in the assay on COLO 205 colon it was 27.5 µM and 3.26 µM; in the assay with SK-MEL-2 melanoma it was 9.67 µM and 3.7 µM. Moreover, the TGI with SW-620 colon is 9.63 µM and 3.63 µM; in the assay on OVCAR-3 ovarian, 2.39 µM and 7.41 µM; in the assay on CAKI-1 renal, 21.4 µM and 11 µM; with NCI-H23 lung it was 20.1 µM and 8.2 µM. Further, the GI50 with CCRF-CEM leukemia is 7.18 µM and 2.17 µM; with HL-60(TB) leukemia, 6.28 µM and 1.51 µM; in the assay with SK-MEL-2 melanoma, 5.28 µM and 1.94 µM; with SW-620 colon, 5.29 µM and 1.92 µM; in the assay with OVCAR-3 ovarian, 0.413 µM and 2.91 µM; with CAKI-1 renal, 7.02 µM and 2.72 µM. For the same molecule, the GI50 in the assay with NCI-H23 lung is 7.89 µM and 1.61 µM.
In the case of `CNc1cccnc1/C=N/NC(N)=S`, the TGI with PC-3 prostate was more than 10 µM; in the assay with CCRF-CEM leukemia, more than 10 µM; with HL-60(TB) leukemia, more than 6.25 µM; with A498 renal it was more than 10 µM; in the assay on COLO 205 colon, more than 10 µM; in the assay with SK-MEL-2 melanoma, more than 10 µM. Moreover, the TGI in the assay on SW-620 colon is more than 10 µM; in the assay on OVCAR-3 ovarian it was more than 8.6 µM; in the assay with CAKI-1 renal, more than 10 µM; with NCI-H23 lung, more than 6.65 µM.
In the case of `Nc1nc(Cl)c(N=Nc2ccc(Cl)cc2)c(NCC2(CO)CC(OCc3ccccc3)C2)n1` (stereo unspecified), the GI50 is 42.8 µM and 10.9 µM in the assay on PC-3 prostate; 3.09 µM with HL-60(TB) leukemia; 30.9 µM and > 100 µM and 20.2 µM in the assay on A498 renal; 27.9 µM and 33.7 µM and 6.17 µM in the assay with COLO 205 colon; 17.3 µM and > 31.3 µM and 13.6 µM in the assay on SK-MEL-2 melanoma; 5.88 µM and 19.2 µM and 6.07 µM in the assay with OVCAR-3 ovarian. Further, the GI50 with CAKI-1 renal is 0.768 µM; in the assay on NCI-H23 lung, 3.76 µM and 25 µM and 3.09 µM. Also, the TGI is 77.5 µM and > 100 µM and 26.5 µM in the assay on PC-3 prostate; 51.5 µM and > 100 µM in the assay with CCRF-CEM leukemia; 29 µM and > 100 µM in the assay on HL-60(TB) leukemia; 91.8 µM and > 100 µM and 44.1 µM in the assay on A498 renal; > 100 µM and 25.6 µM with COLO 205 colon; 61.4 µM and > 100 µM and 28 µM in the assay with SK-MEL-2 melanoma. The TGI with SW-620 colon is > 100 µM and 20 µM; with OVCAR-3 ovarian it was 45 µM and > 100 µM and 21.5 µM; in the assay on CAKI-1 renal, 3.68 µM and 14.2 µM and 5.52 µM; in the assay on NCI-H23 lung, 24.9 µM and > 100 µM and 13.9 µM.
As for `O=C1/C(=C/c2ccc([N+](=O)[O-])o2)Oc2ccccc21`, the GI50 in the assay on PC-3 prostate is 2.25 µM; in the assay with CCRF-CEM leukemia it was 0.338 µM; in the assay on HL-60(TB) leukemia, 1.33 µM; in the assay on A498 renal, 1.93 µM; in the assay with COLO 205 colon, 1.35 µM; in the assay on SK-MEL-2 melanoma it was 1.91 µM. For the same molecule, the GI50 in the assay with SW-620 colon was 0.373 µM; in the assay on OVCAR-3 ovarian, 1.23 µM; in the assay on CAKI-1 renal, 0.758 µM; in the assay on NCI-H23 lung it was 1.95 µM. In addition, the TGI in the assay with PC-3 prostate came out at 7.12 µM; in the assay with CCRF-CEM leukemia it was 1.38 µM; with HL-60(TB) leukemia, 3.89 µM; in the assay with A498 renal, 4.4 µM; with COLO 205 colon it was 2.91 µM; in the assay on SK-MEL-2 melanoma it was 3.73 µM. The TGI in the assay on SW-620 colon came to 1.61 µM; in the assay with OVCAR-3 ovarian, 2.62 µM; in the assay on CAKI-1 renal it was 2.17 µM; in the assay with NCI-H23 lung, 5.08 µM.
Take `NC(N)=N/N=C(/c1ccccc1)c1ccc(Cl)cc1`: the GI50 was 3.84 µM in the assay with PC-3 prostate; 3.89 µM in the assay with CCRF-CEM leukemia; 1.34 µM in the assay on HL-60(TB) leukemia; 4.71 µM with A498 renal; 14.4 µM in the assay with COLO 205 colon; more than 100 µM with SK-MEL-2 melanoma. For the same molecule, the GI50 in the assay on SW-620 colon is 3.93 µM; in the assay on OVCAR-3 ovarian, 2.88 µM; with CAKI-1 renal, 13.9 µM; with NCI-H23 lung it was 34 µM. Further, the TGI with PC-3 prostate is more than 100 µM; in the assay on CCRF-CEM leukemia, more than 100 µM; in the assay with HL-60(TB) leukemia, 62.2 µM; with A498 renal it was 28.7 µM; in the assay on COLO 205 colon, more than 100 µM; with SK-MEL-2 melanoma, more than 100 µM. For the same molecule, the TGI is more than 100 µM with SW-620 colon, 12.1 µM in the assay on OVCAR-3 ovarian, more than 100 µM in the assay with CAKI-1 renal and more than 100 µM in the assay with NCI-H23 lung.
Take `CC(=O)Nc1ccc2c(c1)C(=O)c1cccc(F)c1-2`: the TGI in the assay on PC-3 prostate, in the assay with CCRF-CEM leukemia, in the assay on HL-60(TB) leukemia, in the assay with A498 renal, in the assay with COLO 205 colon and in the assay with SK-MEL-2 melanoma was more than 100 µM each time. Also, the TGI with SW-620 colon, in the assay with OVCAR-3 ovarian, in the assay on CAKI-1 renal and in the assay on NCI-H23 lung was more than 100 µM each time. Moreover, the GI50 in the assay with A498 renal was 31.3 µM.
In the case of `O=C1/C(=C/c2ccc(Cl)cc2)CN(Cc2cn(CCNc3ccnc4cc(Cl)ccc34)nn2)C/C1=C\c1ccc(Cl)cc1`, the GI50 in the assay with PC-3 prostate was 0.26 µM; in the assay with CCRF-CEM leukemia, 0.309 µM; in the assay with HL-60(TB) leukemia, 0.332 µM; in the assay with A498 renal, 1.14 µM; in the assay on COLO 205 colon it was 0.354 µM; in the assay with SK-MEL-2 melanoma, 1.88 µM. Also, the GI50 was 0.275 µM in the assay on SW-620 colon, 0.311 µM with OVCAR-3 ovarian, 0.346 µM in the assay on CAKI-1 renal and 0.761 µM in the assay with NCI-H23 lung. The TGI in the assay with PC-3 prostate is 0.776 µM; in the assay with CCRF-CEM leukemia it was more than 100 µM; with HL-60(TB) leukemia, 1.1 µM; with A498 renal it was 2.37 µM; with COLO 205 colon it was 1.07 µM; in the assay with SK-MEL-2 melanoma, 3.4 µM. Moreover, the TGI with SW-620 colon is 0.83 µM; with OVCAR-3 ovarian it was 0.915 µM; with CAKI-1 renal, 1.57 µM; in the assay on NCI-H23 lung, 2.31 µM.
Take `CCN(CC)CCCNc1nc2ccccc2c2c(=O)c3cc(Cl)ccc3sc12`: the GI50 is 3.41 µM with PC-3 prostate; 2.81 µM with CCRF-CEM leukemia; 5.03 µM with HL-60(TB) leukemia; 8.42 µM in the assay on A498 renal; 2.33 µM in the assay with COLO 205 colon; 10.4 µM in the assay on SK-MEL-2 melanoma. For the same molecule, the GI50 with SW-620 colon is 1.77 µM; in the assay with OVCAR-3 ovarian, 1.92 µM; in the assay on CAKI-1 renal, 4.4 µM; with NCI-H23 lung, 3.69 µM. The TGI is 16.7 µM with PC-3 prostate; 8.68 µM with CCRF-CEM leukemia; 23.2 µM in the assay on HL-60(TB) leukemia; 21.4 µM with A498 renal; 5.58 µM with COLO 205 colon; 27.5 µM in the assay on SK-MEL-2 melanoma. Moreover, the TGI turned out to be 3.41 µM with SW-620 colon, 4.15 µM with OVCAR-3 ovarian, 17.1 µM with CAKI-1 renal and 15.1 µM with NCI-H23 lung.
